Laboratory results as given in patent US5324724A (priority 1990, dated 1994).
pIC50: −log10 of the molar value. Where two headings read alike, the source gives them in different places.

Tests used:
[1] = biological target: muscarinic receptors; assay: Displacement of muscarinic agonist 3H-Oxotremorine-M (3H-OXO-M) binding, cerebral cortex membranes; parameters: species or system Hooded Lister rats; details: rat cerebral cortex; 2 nM 3H-OXO-M; 37° C., 30 min; E3 as hydrochloride salt, all others as oxalate salts
[2] = biological target: muscarinic receptors; format: binding, Hooded Lister rats; details: rat cerebral cortex; 0.27 nM 3H-QNB; 37° C., 30 min; E3 as hydrochloride salt, all others as oxalate salts

`Nc1nncc(C2CN3CCC2C3)n1` (racemic) [E9a & E9b, (±) exo and endo 3-(3-Amino-1,2,4-triazin-5-yl) -1-azabicyclo[2.2.1]heptane] was tested, and the pIC50 [1] was 8.96 and the pIC50 [2] was 6.49.
In the case of `Cc1nncc(C23CCCN(CC2)C3)n1` (racemic) [Example E1, (±) 5-(3-Methyl-l,2,4-triazin-5-yl)-1-azabicyclo[3.2.1]octane], the pIC50 [1] was 7.48 and the pIC50 [2] was 5.74.
`Nc1nncc(C23CCCN(CC2)C3)n1` (racemic) [Example E2, (±) 5-(3-Amino-l,2,4-triazin-5-yl)-1-azabicyclo[3.2.1]octane] was tested, and the pIC50 [1] was 8.30 and the pIC50 [2] was 5.95.
`Nc1nncc(C2CN3CCC2CC3)n1` (racemic) [Example E6, (±)3-(3-Amino-1,2,4-triazin-5-yl)-1-azabicyclo[2.2.2]octane] gave a pIC50 [1] of 7.96 and a pIC50 [2] of 5.63.
In the case of `Cc1nncc(C2CN3CCC2CC3)n1` (racemic) [Example E7, (±) 3-(3-Methyl-1,2,4-triazin-5-yl)-1-azabicyclo[2.2.2]octane], the pIC50 [1] was 8.48 and the pIC50 [2] was 6.76.
In the case of `Cc1nncc([C@@H]2CN3CC[C@@H]2C3)n1` (relative stereo) [Example E8a, 3-(3-Methyl-1,2,4-triazin-5-yl) -1-azabicyclo[2.2.1]heptane], the pIC50 [1] was 8.51 and the pIC50 [2] was 6.59.
Compound `CCc1nncc([C@@H]2CN3CC[C@@H]2C3)n1` (relative stereo) [Example E10, (±) exo and endo 3-(3-Ethyl-1,2,4-triazin-5-yl) -1-azabicyclo[2.2.1]heptane] has a pIC50 [1] of 7.17 and a pIC50 [2] of 6.62.
With `Cc1nncc(C23CCN(CC2)C3)n1` [Example E3, 4-(3-Methyl-1,2,4-triazin-5-yl)-1-azabicyclo[2.2.1]heptane] the pIC50 [1] was 7.15 and the pIC50 [2] was 5.36.
For `Nc1nncc(C23CCN(CC2)C3)n1` [Example E4, 4-(3-Amino-1,2,4-triazin-5-yl)-1-azabicyclo[2.2.1]heptane], the pIC50 [1] was 8.40 and the pIC50 [2] was 5.83.
Compound `COc1nncc(C23CCN(CC2)C3)n1` [Example E5, 4-(3-Methoxy-1,2,4-triazin-5-yl)-1-azabicyclo[2.2.1]heptane] has a pIC50 [1] of 5.96 and a pIC50 [2] of 4.85.
